≈ marks a conversion by molar mass, not a printed value. Where two headings read alike, the source gives them in different places.
Tests used:
S. aureus = assay: Minimum inhibitory concentration (MIC) assay, Example 1, S. aureus strains; assay type: cell-based; details: Staphylococcus aureus
From the text: The methicillin-resistant S. aureus (MRSA) 01 strain was used as the primary test microorganism as a representative bacteria commonly found in skin infections. This strain is a community-acquired MRSA clinical isolate of USA 300 type, from a skin abscess.
(§1) Twenty-one other MRSA and methicillin-sensitive S. aureus strains, and 4 Streptococcus pyogenes strains, were also included in the study (Table 2). These covered fusidic acid- and mupirocin-resistant strains, these two types of resistance being of clinical relevance.
(§2) Strains were conserved in Luria Bertani (LB) Broth (S. aureus) or Brain Heart Infusion (BHI) (S. pyogenes) supplemented with glycerol 15% (v/v) at −80° C., and reactivated by isolation on LB (S. aureus) or BHI (S. pyogenes) agar plates. Strains were cultivated in Mueller Hinton (MH) Broth-cation adjusted (S. aureus) supplemented with lysed horse blood 2.5% (v/v) (S. pyogenes). All strains were cultivated at 37° C., aerobically for S. aureus strains.
(§3) Bacterial cultures were stopped in their exponential growth phase and plates were inoculated with the approximate concentration of 10^3 cells per well. Plates were incubated at 37° C. for 18 hours (S. aureus) or 24 hours (S. pyogenes). Optical density at a wavelength of 600 nm was measured at the end of the incubation time. […] Experiments were performed at least as triplicate biological replicates with all strains.

S. pyogenes [1] = assay: Minimum inhibitory concentration (MIC) assay, Example 1, S. pyogenes strains; assay type: cell-based; details: Streptococcus pyogenes, read-out: MIC
Description: as §1, §2, §3

[2] = test system: MRSA 01, MRSA 15 (fusidic acid-resistant), MRSA 16 (mupirocin-resistant); assay: Mutational frequency evaluation (spontaneous single-step mutations), Example 1; assay type: cell-based, Staphylococcus aureus; details: at MIC×1 (Example 1)
S. pyogenes [3] = assay: MIC assay, Example 2, S. pyogenes strains (in BHI); assay type: cell-based, Streptococcus pyogenes; details: 4 strains
Description: Two-hundred-four other MRSA and methicillin-sensitive S. aureus strains, and 4 Streptococcus pyogenes strains, were also included in the study. These covered fusidic acid- and mupirocin-resistant strains, these two types of resistance being of clinical relevance.
Strains were conserved in Luria Bertani (LB) Broth (S. aureus) or Brain Heart Infusion (BHI) (S. pyogenes) supplemented with glycerol 15% (v/v) at −80° C., and reactivated by isolation on LB (S. aureus) or BHI (S. pyogenes) agar plates. Strains were cultivated in Mueller Hinton (MH) Broth-cation adjusted (S. aureus) or BHI (S. pyogenes). All strains were cultivated aerobically (microaerobically for S. pyogenes strains) at 37° C.
Bacterial cultures were stopped in their exponential growth phase and plates were inoculated with the approximate concentration of 5×10^5 cells per well. Plates were incubated at 37° C. for 18 hours (S. aureus) or 24 hours (S. pyogenes). Optical density at a wavelength of 600 nm was measured at the end of the incubation time.

MRSA 01 = assay: Effect of pH on the antibacterial activity (MIC in pH-adjusted Mueller-Hinton Broth); assay type: cell-based, Staphylococcus aureus; details: for MIC: Staphylococcus aureus, MRSA
Description: Chosen for its relevance regarding bacterial skin infections, the methicillin-resistant S. aureus (MRSA) 01 strain was used. This strain is a community-acquired MRSA clinical isolate of USA 300 type, from a skin abscess.
This strain was conserved in Luria Bertani (LB) Broth supplemented with glycerol 15% (v/v) at −80° C., and reactivated by isolation on LB agar plates. It was then cultivated aerobically in Mueller Hinton (MH) Broth-cation adjusted at 37° C.
The pH of Mueller-Hinton Broth cation-adjusted was adjusted with HCl 2M to 7, 6.5, 6, 5.5, 5, 4.5 and […]. Ten ml of medium for each pH were prepared. The pH of non-adjusted MHBII was equal to 7.4.
Each pH-adjusted samples were filtered on 0.2 μm filters before being used for the MIC determination assay.
Bacterial culture was stopped in its exponential growth phase and plates were inoculated with the approximate concentration of 5×10^5 cells per well. Plates were incubated at 37° C. for 18 hours (S. aureus). Optical density at a wavelength of 600 nm was measured at the end of the incubation time.
The experiment was performed in triple biological replicates.

[4] = Mini-pig PK: niclosamide concentration in plasma; assay type: in vivo, Göttingen SPF mini-pigs; details: mini-pigs, day 28, dermal application of the formulations
Description: The study was performed in 3 male and 3 female Göttingen SPF mini-pigs from Ellegaard Göttingen Mini-pigs A/S, DK-4261 Dalmose, Denmark. At the start of the acclimatization period, the animals were approximately 6 months old and the body weight was 12.1 to 13.4 kg. An acclimatization period of at least 1 week was allowed, during which the animals were observed daily.
All test fields were semi-occluded with Mefix® (Mölnlycke Health Care, Sweden), allowing the sites to “breathe” while keeping the test substance in place. The Mefix® was kept in place with adhesive tape (Tensoplast, BSN medical, Germany) for 6 hours±30 minutes after application to ensure that the compounds were absorbed into the skin.

[5] = published literature values; cited from earlier work

**Q.** Which results are given for `O=C(Nc1ccc([N+](=O)[O-])cc1Cl)c1cc(Cl)ccc1O` [Niclosamide, niclosamide]?
**A.** MIC (S. aureus; MRSA, * tested against one strain: MRSA 01, read-out: Mic100 S. aureus): ≤ 0.4 µg/mL; MIC (S. aureus; MRSA, strain MRSA 01, read-out: MIC): 0.4 µg/mL (≈ 1.22 µM); MIC (S. aureus; MRSA, strain MRSA 02, read-out: MIC): 0.2 µg/mL (≈ 0.611 µM); MIC (S. aureus; MRSA, strain MRSA 03*, read-out: MIC): 0.4 µg/mL (≈ 1.22 µM); MIC (S. aureus; MRSA, strain MRSA 04, read-out: MIC): 0.4 µg/mL (≈ 1.22 µM); MIC (S. aureus; MRSA, strain MRSA 05, read-out: MIC): 0.2 µg/mL (≈ 0.611 µM); MIC (S. aureus; MRSA, strain MRSA 06, read-out: MIC): 0.4 µg/mL (≈ 1.22 µM); MIC (S. aureus; MRSA, strain MRSA 07, read-out: MIC): 0.2 µg/mL (≈ 0.611 µM); MIC (S. aureus; MRSA, strain MRSA 08*, read-out: MIC): 0.4 µg/mL (≈ 1.22 µM); MIC (S. aureus; MRSA, strain MRSA 09, read-out: MIC): 0.2 µg/mL (≈ 0.611 µM); MIC (S. aureus; MRSA, strain MRSA 10, read-out: MIC): 0.4 µg/mL (≈ 1.22 µM); MIC (S. aureus; MRSA, strain MRSA 11, read-out: MIC): 0.1 µg/mL (≈ 0.306 µM); MIC (S. aureus; MRSA, strain MRSA 12*, read-out: MIC): 0.4 µg/mL (≈ 1.22 µM); MIC (S. aureus; MRSA, strain MRSA 13*, read-out: MIC): 0.4 µg/mL (≈ 1.22 µM); MIC (S. aureus; MRSA, strain MRSA 14*, read-out: MIC): 0.4 µg/mL (≈ 1.22 µM); MIC (S. aureus; MRSA, strain MRSA 15*, read-out: MIC): 0.2 µg/mL (≈ 0.611 µM); MIC (S. aureus; MRSA, strain MRSA 16*, read-out: MIC): 0.2 µg/mL (≈ 0.611 µM); MIC (S. aureus; MRSA, strain MRSA 17*, read-out: MIC): 0.2 µg/mL (≈ 0.611 µM); MIC (S. aureus; MSSA, strain MSSA 01*, read-out: MIC): 0.4 µg/mL (≈ 1.22 µM); MIC (S. aureus; MSSA, strain MSSA 02*, read-out: MIC): 0.4 µg/mL (≈ 1.22 µM); MIC (S. aureus; NEWMAN, strain Newman, read-out: MIC): 0.2 µg/mL (≈ 0.611 µM); MIC (S. aureus; strain EEFIC 01*, read-out: MIC): 0.4 µg/mL (≈ 1.22 µM); MIC (S. aureus; strain EEFIC 02*, read-out: MIC): 0.2 µg/mL (≈ 0.611 µM); MIC (S. pyogenes [1]; ATCC12385, S. pyogenes strain ATCC 12385): 1.6 µg/mL (≈ 4.89 µM); MIC (S. pyogenes [1]; ATCC19615, S. pyogenes strain ATCC 19615): 3.2 µg/mL (≈ 9.78 µM); MIC (S. pyogenes [1]; CCUG25571, S. pyogenes strain CCUG 25571): 3.2 µg/mL (≈ 9.78 µM); MIC (S. pyogenes [1]; S. pyogenes strain 01): 3.2 µg/mL (≈ 9.78 µM); mutational frequency [2]: < 4×10^−10; MIC distribution: percentage of Streptococcus pyogenes strains (S. pyogenes [3]; MIC 0.0625 μg/ml): 25%; MIC distribution: percentage of Streptococcus pyogenes strains (S. pyogenes [3]; MIC 0.5 μg/ml): 25% (1/4); MIC distribution: percentage of Streptococcus pyogenes strains (S. pyogenes [3]; MIC […]): 25% (1/4); MIC (MRSA 01; MRSA 01, pH 7.0 (actual pH 7.071), Replicate 2): 0.125 µg/mL (≈ 0.382 µM); MIC (MRSA 01; pH 7.4, MRSA 01, pH not adjusted (actual pH 7.4), Replicate 1): 0.5 µg/mL (≈ 1.53 µM); MIC (MRSA 01; pH 7.4, MRSA 01, pH not adjusted (actual pH 7.4), Replicate 3): 0.5 µg/mL (≈ 1.53 µM); inhibitory activity against MRSA 01 as a function of pH (MRSA 01; pH-adjusted Mueller-Hinton Broth): increased when pH was decreased; concentration in the plasma [4]: less than 0.651 ng/mL; LD50 mice p.o [5]: >1500 mg/kg
